# From paper PMC8820799, “Angiogenesis and anti-leukaemia activity of novel indole derivatives as potent colchicine binding site inhibitors” (Journal of Enzyme Inhibition and Medicinal Chemistry, 2022)
# Key:
# [1] = tested on: MV4-11; test: CCK-8 assay, MV4-11; assay type: cell-based; settings: Homo sapiens, leukaemia, AML, CCK-8, 72 h
# Protocol: (§1) Cells were seeded in 96-well plates at a density of 8 × 10^3 per well and exposed to different concentrations of compounds for 72 h. Subsequently, 10 µL CCK8 solution was added to each well and co-incubated for another 3–4 h at 37 °C. The absorbance was determined at 450 nm. Data was calculated with GraphPad Prism5 software.[32]
# [2] = tested on: HL60; test: CCK-8 assay, HL60; assay type: cell-based; settings: Homo sapiens, HL-60; leukaemia, APL; CCK-8, 72 h
# Protocol: as §1
# [3] = tested on: K562; test: CCK-8 assay, K562; assay type: cell-based; settings: Homo sapiens, leukaemia, CML, CCK-8, 72 h
# Protocol: as §1
# [4] = tested on: THP-1; test: CCK-8 assay, THP-1; assay type: cell-based; settings: Homo sapiens, leukaemia, AML, CCK-8, 72 h
# Protocol: as §1
# [5] = tested on: CCRF-CEM; test: CCK-8 assay, CCRF-CEM; assay type: cell-based; settings: Homo sapiens, leukaemia, ALL, CCK-8, 72 h
# Protocol: as §1
# [6] = tested on: Jurkat; test: CCK-8 assay, Jurkat; assay type: cell-based; settings: Homo sapiens, leukaemia, ALL, CCK-8, 72 h
# Protocol: as §1
# [7] = tested on: HuT 78; test: CCK-8 assay, HuT 78; assay type: cell-based; settings: Homo sapiens, HuT78; leukaemia, ALL; CCK-8, 72 h
# Protocol: as §1
# [8] = biological target: T1, Tubulin isolated from porcine brain tissue (Sus scrofa, UniProt P02550+P02554); test: Tubulin polymerisation assay; assay type: biochemical; settings: triplicate, mean ± SD; read-out: Tubulin (tubulin inhibitory polymerisation IC50)
# T1 construct: purchased Cytoskeleton (Denver, CO), via Beyotime, China; host or cells: porcine brain tissue
# Protocol: Tubulin polymerisation was determined with the tubulin polymerisation assay kit (Cytoskeleton, Denver, CO which was purchased from Cytoskeleton, Beyotime, China. Tubulin isolated from porcine brain tissue was used in this commercial kit.) It is based on the principal that light is scattered by microtubules to an extent that is proportional to the concentration of the microtubule polymer. Compounds that interact with tubulin will alter the polymerisation of tubulin, and this can be detected using a spectrophotometer. Tubulin polymerisation dynamics was monitored through measuring the change of absorbance at 340 nm every 2 min for 30 min at 37 °C on a spectrophotometer.
# [9] = tested on: transgenic zebrafish (FLK-1:EGFP); test: Zebrafish angiogenesis assay (ISVs); assay type: in vivo; settings: Danio rerio, transgenic zebrafish; triplicate, mean ± SD; read-out: Zebrafish (antiangiogenic activity IC50)
# Protocol: The transgenic flk: enhanced GFP zebrafish embryos were generated by pair-wise mating, collected and sorted into the 6-well plate (n = 30 per well) with 1 ml of aquaculture water (0.2 g/L of Instant Ocean Salt in distilled water) and raised at 28 °C. Then the embryos staged at 12 h post fertilisation (hpf) were treated with the indicated concentrations of compounds which were added into embryo water. About 30 embryos were screened for each concentration gradient. At 30hpf, the treated embryos were anaesthetised with 0.02% tricaine in embryo water and photographed. The numbers of ISVs were recorded under confocal microscopy. Results were obtained from three independent determinations and presented as mean ± SD.[38]
# T1 sequence (P02554 whole entry): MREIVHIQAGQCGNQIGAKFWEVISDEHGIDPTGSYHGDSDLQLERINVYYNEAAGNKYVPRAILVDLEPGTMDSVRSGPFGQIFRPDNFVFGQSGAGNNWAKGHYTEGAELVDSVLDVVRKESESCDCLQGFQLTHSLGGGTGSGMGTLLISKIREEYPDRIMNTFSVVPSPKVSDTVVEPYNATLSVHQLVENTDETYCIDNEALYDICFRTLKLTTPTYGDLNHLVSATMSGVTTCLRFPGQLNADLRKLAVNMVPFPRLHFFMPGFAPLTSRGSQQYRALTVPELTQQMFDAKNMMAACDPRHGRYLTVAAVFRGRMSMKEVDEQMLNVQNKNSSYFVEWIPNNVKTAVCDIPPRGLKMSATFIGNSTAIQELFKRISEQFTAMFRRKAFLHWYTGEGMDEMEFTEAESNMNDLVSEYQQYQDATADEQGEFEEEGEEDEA
# T1 sequence (P02550 whole entry): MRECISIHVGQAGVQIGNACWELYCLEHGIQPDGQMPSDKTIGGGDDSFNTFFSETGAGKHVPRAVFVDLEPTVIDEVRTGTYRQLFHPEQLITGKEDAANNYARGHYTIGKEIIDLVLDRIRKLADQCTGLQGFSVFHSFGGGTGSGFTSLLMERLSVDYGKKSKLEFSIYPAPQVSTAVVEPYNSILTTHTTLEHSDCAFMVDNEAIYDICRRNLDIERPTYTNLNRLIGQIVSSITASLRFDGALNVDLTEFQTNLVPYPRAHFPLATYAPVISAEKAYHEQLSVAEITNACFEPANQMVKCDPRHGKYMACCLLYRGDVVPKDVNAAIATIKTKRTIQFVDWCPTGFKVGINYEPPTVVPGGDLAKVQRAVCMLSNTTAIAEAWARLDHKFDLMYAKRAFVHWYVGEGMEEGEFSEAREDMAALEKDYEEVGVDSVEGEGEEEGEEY
IC50 [8],melting point,Structure (SMILES),IC50 [1],IC50 [2],IC50 [3],IC50 [4],IC50 [5],IC50 [6],IC50 [7],IC50 [9]
–,–,"COc1ccc(/C=C\c2cc(OC)c(OC)c(OC)c2)cc1O [CA-4, Combretastatin A-4, reference compound]",120 ± 30 nM,260 ± 50 nM,270 ± 10 nM,80 ± 10 nM,710 ± 110 nM,190 ± 20 nM,240 ± 40 nM,–
25600 nM,–,"COc1cc(C(=O)/C=C/c2ccnc3ccccc23)cc(OC)c1OC [DYT-1, (E)-3-(quinolin-4-yl)-1–(3,4,5-trimethoxyphenyl)prop-2-en-1-one]",–,–,6200 nM,–,–,7900 nM,–,38400 nM
58400 ± 1700 nM,165 to 168 °C,"COc1ccc(C(=O)/C=C/c2cn(S(=O)(=O)c3ccccc3)c3ccccc23)cc1 [Compound 26e, (E)-1–(4-Methoxyphenyl)-3–(1-(phenylsulfonyl)-1H-indol-3-yl)prop-2-en-1-one]",–,–,–,–,–,–,–,35600 ± 3200 nM
